Assay results as given in US20230276817A1, “PREPARATION AND METHOD FOR IMPROVING RiNG ROT RESISTANCE OF APPLE FRUITS” (Shandong Institute of Pomology, priority 2022, published 2023).

Assays:
Assay type in all cases: in vivo
Botryosphaeria dothidea [1] = test: In-vitro inoculation of sorbitol-soaked mature "Gala" apple fruits with ring rot fungus
Procedure: (§1) A fungus block of Botrvosphaeria dothidea was inoculated in a potato dextrose agar (PDA) medium by a puncher having a diameter of 5 mm, and inverted and cultured in the dark at 28° C. for 10 days.
S41: An in-vitro inoculation method was adopted for identifying disease resistance of the “Gala” apple fruits, and 6 treatments were set as follows:
S42: Surfaces of mature “Gala” fruits (within 120 days after flowering) were disinfected with 0.1% of sodium hypochlorite; and the fruits were fully washed with sterilized deionized water, aired and stood at 25° C. for 12 h for later use.
S43: The “Gala” fruits of the same size were selected and respectively soaked in the sterilized deionized water, the sorbitol solution of 100 mM, the sorbitol solution of 150 mM, the sorbitol solution of 200 mM and the sorbitol solution of 300 mM; and 10 fruits were treated in each treatment. The apples were taken out within 3 h after treatment; surface liquid was wiped up; middle parts of the surfaces of the apple fruits were punctured by sterilized toothpicks at a depth of 5 mm; 0.02 g of Botryosphaeria dothidea hyphae having vigorous and consistent growth within 10 days was added into the punctured parts; and the single pathogenic fungus inoculation treatment was taken as control. After inoculation, the “Gala” fruits were cultured in a thermostatic incubator at 28° C. in the dark. A disease spot diameter served as a measurement standard of the incidence degree of the apple fruits; diameters of 5 points of each disease spot were measured; and the mean value was taken as the result. Since 3 d after treatment, disease spot diameters of the apple fruits in different treatments were photographed and recorded every day; and the diameters were continuously recorded for 4 d. A significance level of disease spot size differences among the treatment groups was calculated according to analysis of variance.

Botryosphaeria dothidea [2] = test: In-vitro inoculation of sorbitol-soaked mature "Red delicious" apple fruits with ring rot fungus
Procedure: as §1
S21: An in-vitro inoculation method was adopted for identifying disease resistance of the “Red delicious” apple fruits; and 6 treatments were set as follows:
S22: Surfaces of mature “Red delicious” fruits (within 140 days after flowering) were disinfected with 0.1% of sodium hypochlorite; and the fruits were fully washed with sterilized deionized water, aired and stood at 25° C. for 12 h for later use.
S23: The “Red delicious” fruits of the same size were selected and respectively soaked in the sterilized deionized water, the sorbitol solution of 100 mM, the sorbitol solution of 150 mM, the sorbitol solution of 200 mM and the sorbitol solution of 300 mM; and 10 fruits were treated in each treatment. The apples were taken out within 3 h after treatment; surface liquid was wiped up; middle parts of the surfaces of the apple fruits were punctured by sterilized toothpicks at a depth of 5 mm: 0.02 g of Botryosphaeria. dothidea hyphae having vigorous and consistent growth within 10 days was added into the punctured parts; and the single pathogenic fungus inoculation treatment was taken as control. After inoculation, the “Red delicious” fruits were cultured in a thermostatic incubator at 28° C. in the dark. A disease spot diameter served as a measurement standard of the incidence degree of the apple fruits; diameters of 5 points of each disease spot were measured; and the mean value was taken as the result. Since 3 d after treatment, disease spot diameters of the apple fruits in different treatments were photographed and recorded every day; and the diameters were continuously recorded for 4 d. A significance level of disease spot size differences among the treatment groups was calculated according to analysis of variance.

Botryosphaeria dothidea [3] = test: In-vitro inoculation of sorbitol-soaked mature "Fuji" apple fruits with ring rot fungus
Procedure: as §1
S31: An in-vitro inoculation method was adopted for identifying disease resistance of the “Fuji” apple fruits; and 6 treatments were set as follows:
S32: Surfaces of mature “Fuji” fruits (within 180 days after flowering) were disinfected with 0.1% of sodium hypochlorite; and the fruits were fully washed with sterilized deionized water, aired and stood at 25° C. for 12 h for later use.
S33: The “Fuji” fruits of the same size were selected and respectively soaked in the sterilized deionized water, the sorbitol solution of 100 mM, the sorbitol solution of 150 mM, the sorbitol solution of 200 mM and the sorbitol solution of 300 mM; and 10 fruits were treated in each treatment. The apples were taken out within 3 h after treatment; surface liquid was wiped up; middle parts of the surfaces of the apple fruits were punctured by sterilized toothpicks at a depth of 5 mm; 0.02 g of Botryosphaeria dothidea hyphae having vigorous and consistent growth within 10 days was added into the punctured parts; and the single pathogenic fungus inoculation treatment was taken as control. After inoculation, the “Fuji” fruits were cultured in a thermostatic incubator at 28° C. in the dark. A disease spot diameter served as a measurement standard of the incidence degree of the apple fruits; diameters of 5 points of each disease spot were measured; and the mean value was taken as the result. Since 3 d after treatment, disease spot diameters of the apple fruits in different treatments were photographed and recorded every day; and the diameters were continuously recorded for 4 d. A significance level of disease spot size differences among the treatment groups was calculated according to analysis of variance.

Botryosphaeria dothidea [4] = test: In-vitro inoculation of sorbitol-soaked mature "Golden delicious" apple fruits with ring rot fungus
Procedure: as §1
S51: An in-vitro inoculation method was adopted for identifying disease resistance of the “Golden delicious” apple fruits; and 6 treatments were set as follows:
S52: Surfaces of mature “Golden delicious” fruits (within 135 days after flowering) were disinfected with 0.1% of sodium hypochlorite; and the fruits were fully washed with sterilized deionized water, aired and stood at 25° C. for 12 h for later use.
S53: The “Golden delicious” fruits of the same size were selected and respectively soaked in the sterilized deionized water, the sorbitol solution of 100 mM, the sorbitol solution of 150 mM, the sorbitol solution of 200 mM and the sorbitol solution of 300 mM; and 10 fruits were treated in each treatment. The apples were taken out within 3 h after treatment; surface liquid was wiped up; middle parts of the surfaces of the apple fruits were punctured by sterilized toothpicks at a depth of 5 mm; 0.02 g of Botryosphaeria dothidea hyphae having vigorous and consistent growth within 10 days was added into the punctured parts; and the single pathogenic fungus inoculation treatment was taken as control. After inoculation, the “Golden delicious” fruits were cultured in a thermostatic incubator at 28° C. in the dark. A disease spot diameter served as a measurement standard of the incidence degree of the apple fruits; diameters of 5 points of each disease spot were measured; and the mean value was taken as the result. Since 3 d after treatment, disease spot diameters of the apple fruits in different treatments were photographed and recorded every day; and the diameters were continuously recorded for 4 d. A significance level of disease spot size differences among the treatment groups was calculated according to analysis of variance.

[5] = sorbitol solution of 200 mM, soak 3 h, 6 d after inoculation
[6] = sorbitol solution of 300 mM, 6 d after inoculation
[7] = sorbitol solution soak 3 h, 3-6 d after inoculation

For `OC[C@@H](O)[C@@H](O)[C@H](O)[C@@H](O)CO` [sorbitol, D-Sorbitol], the optimum treatment concentration (Botryosphaeria dothidea [1]) was 200 mM, the “average disease spot diameter” value (Botryosphaeria dothidea [1]; [5]) was 1.89 cm and the “disease spot diameter versus 200 mM treatment” value (Botryosphaeria dothidea [1]; [6]) was “no significant difference”. For the same molecule, the “increase rate of the disease spot diameters compared with the control” value (from here on “increase rate”) (Botryosphaeria dothidea [1]; [7]) was “significantly decreased”, the optimum treatment concentration (Botryosphaeria dothidea [2]) was 200 mM and the disease spot diameter (Botryosphaeria dothidea [2]; [5]) was 0.76 cm. The “disease spot diameter versus 200 mM treatment” value (Botryosphaeria dothidea [2]; [6]) was “no significant difference”, the “increase rate” value (Botryosphaeria dothidea [2]; [7]) was “significantly decreased” and the optimum treatment concentration (Botryosphaeria dothidea [3]) was 150 mM. For the same molecule, the disease spot diameter (Botryosphaeria dothidea [3]; sorbitol solution of 150 mM, soak 3 h, 6 d after inoculation) was 1.86 cm, the “disease spot diameter versus 150 mM treatment” value (Botryosphaeria dothidea [3]; sorbitol solution of 200 mM, 6 d after inoculation) was “no significant difference” and the “disease spot diameter versus 150 mM treatment” value (Botryosphaeria dothidea [3]; [6]) was “no significant difference”. For the same molecule, the “increase rate” value (Botryosphaeria dothidea [3]; [7]) was “significantly decreased”, the optimum treatment concentration (Botryosphaeria dothidea [4]) was 200 mM and the “average disease spot diameter” value (Botryosphaeria dothidea [4]; [5]) was 1.70 cm. The “disease spot diameter versus 200 mM treatment” value (Botryosphaeria dothidea [4]; [6]) was “no significant difference” and the “increase rate” value (Botryosphaeria dothidea [4]; [7]) was “significantly decreased”.
